Among the data in patent US8017600B2, “Imidazole compounds” (Janssen Pharmaceutica NV, priority 2004, dated 2011) are Ki values, retold here.

Each structure is given as a SMILES string.

What is called Ki is a measure of affinity in units of concentration, obtained from inhibition or displacement.

T1 sequence (Q9H3N8 whole entry): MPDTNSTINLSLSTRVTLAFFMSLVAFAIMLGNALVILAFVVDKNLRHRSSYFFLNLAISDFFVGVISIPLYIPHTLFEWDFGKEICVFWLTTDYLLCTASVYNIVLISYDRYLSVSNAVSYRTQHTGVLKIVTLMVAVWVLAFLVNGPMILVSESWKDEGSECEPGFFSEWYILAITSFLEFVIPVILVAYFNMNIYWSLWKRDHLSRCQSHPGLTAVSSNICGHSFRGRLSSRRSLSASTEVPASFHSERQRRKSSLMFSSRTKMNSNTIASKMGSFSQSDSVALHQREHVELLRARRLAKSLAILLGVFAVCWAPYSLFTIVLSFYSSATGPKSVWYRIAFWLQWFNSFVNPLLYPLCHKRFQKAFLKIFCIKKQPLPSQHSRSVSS

The test addresses T1, human histamine H4 receptor (Homo sapiens, UniProt Q9H3N8).
T1 construct: expressed in transfected cells; host or cells: SK-N-MC cells or COS7 cells, transient transfection; cell membranes
Description: Binding assay on recombinant human histamine H4 receptor (3H-histamine displacement). As to conditions: membranes of SK-N-MC or COS7 cells expressing human H4 receptor, Cheng-Prusoff. As for the experimental part:
SK-N-MC cells or COS7 cells were transiently transfected with pH4R and grown in 150 cm^2 tissue culture dishes. Cells were washed with saline solution, scraped with a cell scraper and collected by centrifugation (1000 rpm, 5 min). Cell membranes were prepared by homogenization of the cell pellet in 20 mM Tris-HCl with a polytron tissue homogenizer for 10 sec at high speed. Homogenate was centrifuged at 1000 rpm for 5 min at 4° C. The supernatant was then collected and centrifuged at 20,000×g for 25 min at 4° C. The final pellet was resuspended in 50 mM Tris-HCl. Cell membranes were incubated with ^3H-histamine (5-70 nM) in the presence or absence of excess histamine (10,000 nM). Incubation occurred at room temperature for 45 min. Membranes were harvested by rapid filtration over Whatman GF/C filters and washed 4 times with ice-cold 50 mM Tris HCl. Filters were then dried, mixed with scintillant and counted for radioactivity. SK-N-MC or COS7 cells expressing human histamine H4 receptor were used to measure the affinity of binding of other compounds and their ability to displace ^3H-ligand binding by incubating the above-described reaction in the presence of various concentrations of inhibitor or compound to be tested.
For `CN1CCN(CCCOc2ccc(-c3nc(-c4ccccc4)c(-c4ccccc4)[nH]3)c(Cl)c2)CC1` [Example 2, 1-{3-[3-Chloro-4-(4,5-diphenyl-1H-imidazol-2-yl)-phenoxy]-propyl}-4-methyl-piperazine], the Ki came out at 39 nM. In the case of `Cc1[nH]c(-c2ccc(OCCCC3CCN(C)CC3)cc2Cl)nc1-c1ccc(Cl)cc1` [Example 19, 4-(3-{3-Chloro-4-[4-(4-chloro-phenyl)-5-methyl-1H-imidazol-2-yl]-phenoxy}-propyl)-1-methyl-piperidine], the Ki is 22 nM. For `Cc1[nH]c(-c2ccc(OCCCC3CCN(C)CC3)nc2)nc1-c1ccc(Cl)cc1` [Example 28, 5-[4-(4-Chloro-phenyl)-5-methyl-1H-imidazol-2-yl]-2-[3-(1-methyl-piperidin-4-yl)-propoxy]-pyridine], the Ki came out at 72 nM.

`CCCc1[nH]c(-c2ccc(OCCCC3CCN(C)CC3)cc2Cl)nc1C` [Example 24, 4-{3-[3-Chloro-4-(4-methyl-5-propyl-1H-imidazol-2-yl)-phenoxy]-propyl}-1-methyl-piperidine]: the Ki was determined as 69 nM. The result for `CN1CCN(CCCOc2ccc(-c3nc(-c4ccc(Br)cc4)c(-c4ccc(Br)cc4)[nH]3)c(Cl)c2)CC1` [Example 1, 1-(3-{4-[4,5-Bis-(4-bromo-phenyl)-1H-imidazol-2-yl]-3-chloro-phenoxy}-propyl)-4-methyl-piperazine] reads 14 nM. Regarding `CN1CCN(CCCOc2ccc(-c3nc(-c4ccccc4)c(C(F)(F)F)[nH]3)c(Cl)c2)CC1` [Example 44, 1-{3-[3-Chloro-4-(4-phenyl-5-trifluoromethyl-1H-imidazol-2-yl)-phenoxy]-propyl}-4-methyl-piperazine], the inhibition constant Ki was determined as 20 nM. As for `Cc1[nH]c(-c2ccc(OCCCC3CCN(C)CC3)cc2Cl)nc1-c1cccc(C(F)(F)F)c1` [Example 16, 4-(3-{3-Chloro-4-[5-methyl-4-(3-trifluoromethyl-phenyl)-1H-imidazol-2-yl]-phenoxy}-propyl)-1-methyl-piperidine], the Ki stood at 165 nM. The result for `CN1CCC(CCCOc2ccc(-c3nc(-c4ccc(F)cc4)c(-c4ccc(F)cc4)[nH]3)c(Cl)c2)CC1` [Example 20, 4-(3-{4-[4,5-Bis-(4-fluoro-phenyl)-1H-imidazol-2-yl]-3-chloro-phenoxy}-propyl)-1-methyl-piperidine] reads 39 nM. For the molecule `Cc1ccc(-c2[nH]c(-c3ccc(OCCCC4CCN(C)CC4)cc3Cl)nc2-c2ccc(Cl)cc2)cc1` [Example 22, 4-(3-{3-Chloro-4-[4-(4-chloro-phenyl)-5-p-tolyl-1H-imidazol-2-yl]-phenoxy}-propyl)-1-methyl-piperidine], the Ki was found to be 29 nM. Take `Cc1[nH]c(-c2ccnc(OCCCCC3CCN(C)CC3)c2)nc1-c1ccc(Cl)cc1` [Example 39, 4-[4-(4-Chloro-phenyl)-5-methyl-1H-imidazol-2-yl]-2-[4-(1-methyl-piperidin-4-yl)-butoxy]-pyridine]: the Ki stood at 230 nM.

In the case of `COc1cccc(-c2nc(-c3ccc(OCCCN4CCN(C)CC4)c(F)c3)[nH]c2-c2cccc(OC)c2)c1` [Example 8, 1-(3-{4-[4,5-Bis-(3-methoxy-phenyl)-1H-imidazol-2-yl]-2-fluoro-phenoxy}-propyl)-4-methyl-piperazine], the Ki was determined as 60 nM. As for `CN1CCN(CCCOc2ccc(-c3nc(-c4ccccc4Cl)c(-c4ccccc4Cl)[nH]3)c(Cl)c2)CC1` [Example 3, 1-(3-{4-[4,5-Bis-(2-chloro-phenyl)-1H-imidazol-2-yl]-3-chloro-phenoxy}-propyl)-4-methyl-piperazine], the figure is 244 nM. As for `CN1CCCN(CCCOc2ccc(-c3nc4c([nH]3)CCCC4)c(Cl)c2)CC1` [Example 13, 2-{2-Chloro-4-[3-(4-methyl-[1,4]diazepan-1-yl)-propoxy]-phenyl}-4,5,6,7-tetrahydro-1H-benzoimidazole], the figure is 32 nM; as for `Cc1[nH]c(-c2ccc(OCCCC3CCN(C)CC3)cc2Cl)nc1-c1cc(Cl)cc(Cl)c1` [Example 17, 4-(3-{3-Chloro-4-[4-(3,5-dichloro-phenyl)-5-methyl-1H-imidazol-2-yl]-phenoxy}-propyl)-1-methyl-piperidine], 52 nM; as for `Cc1cc(OCCOC2CCN(C)CC2)ccc1-c1nc(-c2ccc(Cl)cc2)c(C)[nH]1` [Example 48, 4-(2-{4-[4-(4-Chloro-phenyl)-5-methyl-1H-imidazol-2-yl]-3-methyl-phenoxy}-ethoxy)-1-methyl-piperidine], 620 nM.

For `Cc1nc(-c2ccc(OCCCN3CCN(C)CC3)cc2Cl)[nH]c1C` [Example 43, 1-{3-[3-Chloro-4-(4,5-dimethyl-1H-imidazol-2-yl)-phenoxy]-propyl}-4-methyl-piperazine], the inhibitory constant (Ki) worked out at 2510 nM. As for `Cc1[nH]c(-c2ccc(OCCCN3CCN(C)CC3)nc2)nc1-c1ccc(C(F)(F)F)cc1` [Example 32, 1-Methyl-4-(3-{5-[5-methyl-4-(4-trifluoromethyl-phenyl)-1H-imidazol-2-yl]-pyridin-2-yloxy}-propyl)-piperazine], the figure is 230 nM.

`Cc1cc(OCCCC2CCN(C)CC2)ccc1-c1nc(C)c(CC(C)C)[nH]1` [Example 38, 4-{3-[4-(5-Isobutyl-4-methyl-1H-imidazol-2-yl)-3-methyl-phenoxy]-propyl}-1-methyl-piperidine]: the Ki came out at 230 nM. As to `Cc1cc(OCCCC2CCN(C)CC2)ccc1-c1nc(-c2cc(Cl)cc(Cl)c2)c(C)[nH]1` [Example 18, 4-(3-{4-[4-(3,5-Dichloro-phenyl)-5-methyl-1H-imidazol-2-yl]-3-methyl-phenoxy}-propyl)-1-methyl-piperidine], the inhibition constant (Ki) was 45 nM. As for `Cc1[nH]c(-c2cccc(OCCCCC3CCN(C)CC3)c2)nc1-c1ccc(Cl)cc1` [Example 34, 4-(4-{3-[4-(4-Chloro-phenyl)-5-methyl-1H-imidazol-2-yl]-phenoxy}-butyl)-1-methyl-piperidine], the figure is 33 nM; as for `COc1cccc(-c2nc(-c3ccc(OCCCN4CCCN(C)CC4)cc3Cl)[nH]c2-c2cccc(OC)c2)c1` [Example 10, 1-(3-{4-[4,5-Bis-(3-methoxy-phenyl)-1H-imidazol-2-yl]-3-chloro-phenoxy}-propyl)-4-methyl-[1,4]diazepane], 6 nM; as for `CN1CCC(CCCOc2ccc(-c3nc(-c4ccccc4)c(C(F)(F)F)[nH]3)c(Cl)c2)CC1` [Example 15, 4-{3-[3-Chloro-4-(4-phenyl-5-trifluoromethyl-1H-imidazol-2-yl)-phenoxy]-propyl}-1-methyl-piperidine], 38 nM. As for `CN1CCC(CCCCOc2cccc(-c3nc4cccnc4[nH]3)c2)CC1` [Example 69, 2-{3-[4-(1-Methyl-piperidin-4-yl)-butoxy]-phenyl}-3H-imidazo[4,5-b]pyridine], the Ki came to 1410 nM. Consider `CN1CCC(CCCOc2ccc(-c3nc(-c4ccccc4)c(C(F)(F)F)[nH]3)cn2)CC1` [Example 31, 2-[3-(1-Methyl-piperidin-4-yl)-propoxy]-5-(4-phenyl-5-trifluoromethyl-1H-imidazol-2-yl)-pyridine], for which the Ki was determined as 186 nM.

With `COc1cccc(-c2nc(-c3ccc(OCCCC4CCN(C)CC4)cc3Cl)[nH]c2-c2cccc(OC)c2)c1` [Example 21, 4-(3-{4-[4,5-Bis-(3-methoxy-phenyl)-1H-imidazol-2-yl]-3-chloro-phenoxy}-propyl)-1-methyl-piperidine], the Ki was determined as 37 nM.

On to `Cc1[nH]c(-c2ccnc(OCCCCC3CCN(C)CC3)c2)nc1-c1cccc(C(F)(F)F)c1` [Example 37, 2-[4-(1-Methyl-piperidin-4-yl)-butoxy]-4-[5-methyl-4-(3-trifluoromethyl-phenyl)-1H-imidazol-2-yl]-pyridine], for which the Ki turned out to be 174 nM. Consider `Cc1[nH]c(-c2ccc(OCCCC3CCN(C)CC3)nc2)nc1-c1cc(Cl)cc(Cl)c1` [Example 27, 5-[4-(3,5-Dichloro-phenyl)-5-methyl-1H-imidazol-2-yl]-2-[3-(1-methyl-piperidin-4-yl)-propoxy]-pyridine], for which the Ki was found to be 290 nM.

For `CN1CCC(CCCOc2ccc(-c3nc4c([nH]3)CCCC4)c(Cl)c2)CC1` [Example 23, 2-{2-Chloro-4-[3-(1-methyl-piperidin-4-yl)-propoxy]-phenyl}-4,5,6,7-tetrahydro-1H-benzoimidazole], the Ki worked out at 155 nM. `CN1CCN(CCCOc2ccc(-c3nc(-c4ccc(F)cc4)c(-c4ccc(F)cc4)[nH]3)c(Cl)c2)CC1` [Example 6, 1-(3-{4-[4,5-Bis-(4-fluoro-phenyl)-1H-imidazol-2-yl]-3-chloro-phenoxy}-propyl)-4-methyl-piperazine]: the inhibition constant (Ki) was determined as 29 nM.

Turning to `Cc1[nH]c(-c2ccc(OCCCN3CCN(C)CC3)nc2)nc1-c1cccc(C(F)(F)F)c1` [Example 33, 1-Methyl-4-(3-{5-[5-methyl-4-(3-trifluoromethyl-phenyl)-1H-imidazol-2-yl]-pyridin-2-yloxy}-propyl)-piperazine], the Ki came out at 63 nM. On to `CN1CCC(CCCCOc2cccc(-c3nc(-c4ccccc4)c(C(F)(F)F)[nH]3)c2)CC1` [Example 35, 1-Methyl-4-{4-[3-(4-phenyl-5-trifluoromethyl-1H-imidazol-2-yl)-phenoxy]-butyl}-piperidine], for which the inhibitory constant (Ki) amounted to 57 nM.

Turning to `COc1cccc(-c2nc(-c3ccc(OCCCN4CCN(C)CC4)cc3Cl)[nH]c2-c2cccc(OC)c2)c1` [Example 7, 1-(3-{4-[4,5-Bis-(3-methoxy-phenyl)-1H-imidazol-2-yl]-3-chloro-phenoxy}-propyl)-4-methyl-piperazine], the Ki stood at 21 nM.
